Test results published in US10953094B2, “Pulse photodynamic treatment of photodamaged skin” (GALDERMA RESEARCH & DEVELOPMENT, priority 2013, dated 2021).

Legend:
[1] = tested on: facial photodamage; assay: Double-blind randomized-controlled trial of daylight PDT, efficacy in facial photodamage; assay type: in vivo, human
Procedure: (§1) A double-blind randomized-controlled trial has been conducted to determine whether daylight PDT is an efficient method for treating photodamaged skin. […] Neither the investigator nor the patient knew which agent was administered, as it was applied by a trained professional nurse. To enhance product/placebo penetration a subtle abrasion with sandpaper of the whole face was performed. Also, a sunscreen (Cetaphil Dermacontrol SPF30®) was applied to the entire sun-exposed area including the treatment area in both groups during daylight-PDT, to avoid sunburn. Efficacy was evaluated after 1 month of the third (last) daylight session.

[2] = Same daylight PDT trial, pain VAS and skin reactions 1 week after sessions; assay type: in vivo, human
Procedure: as §1, with “[…] Similarly, there were no statistical differences in the effects experimented by patients by patients one week after sessions, and in some of these variables no effect” for “Efficacy”, “found depending on each session (below table).” for “evaluated after 1 month of the third (last) daylight session.”

[3] = Pulse time investigation (Method B), PPIX formation in healthy volunteers; assay type: in vivo, human; conditions: PPIX formation after 3 hours; pulse times 20, 40, 60, 180 min
Procedure: (§2) The formation of PPIX after 3 hours is seen in FIG. 8, and the relation to inflammation is seen in FIG. 9. […] The results are illustrated in Column 3 in FIGS. 4, 5, 6, and 7. […] Pain level is not changed.
Twenty-four healthy male volunteers of Scandinavian ancestry were included in the study (mean age 30 years, range 20-51). A treatment area was selected on the inside of both forearms of the volunteer. Each treatment area was divided into four minor treatment fields of the size 2×5 cm with at least 3 cm between each field using a prefabricated flexible template. In order to imitate skin lesions all fields were tape stripped 10 times with occlusive dressing before treatment (Tegaderm™ Roll, 3M, Glostrup, Denmark). […]
All fields were covered with light-impermeable, occlusive dressing. […] During and after illumination pain was recorded. […]
5-MAL-induced PpIX fluorescence was depicted non-invasively using a fluorescence camera (Medeikonos AB, Gothenburg, Sweden). The amount of PpIX fluorescence was calculated from the photographs by the program MatLab® (MatLab®, MathWorks, Natic, US). The amount of fluorescence was measured before tape stripping and cream application (baseline) and before and after illumination.
The photo bleaching is then the difference in PpIX fluorescence (AU) calculated from the pre and post illumination images.

[4] = Pulse exposure 30 min (Method A), investigation of efficacy and inflammation; assay type: in vivo; conditions: 30 min pulse exposure vs conventional 3-hour exposure
Procedure: as §2

[5] = out of 30 subjects, 1 month after third daylight session
[6] = specific photodamage severity score, 1 month after third session
[7] = reaction 1 week after session 1
[8] = reaction 1 week after session 2
[9] = reaction 1 week after session 3

## COC(=O)CCC(=O)CN [Metvix, methyl aminolevulinate]
[1]; [5]
  facial improvement, number of subjects: 14
  facial success, number of subjects: 11
[1]; [6]
  Coarse lines: failure, % of subjects: (30%)
  Coarse lines: improvement, % of subjects: (50%)
  Coarse lines: sucess, % of subjects: (20%)
  Erythema: failure, % of subjects: (20%)
  Erythema: improvement, % of subjects: (53.3%)
  Erythema: sucess, % of subjects: (26.7%)
  Fine lines: failure, % of subjects: (20%)
  Fine lines: improvement, % of subjects: (43.3%)
  Fine lines: sucess, % of subjects: (36.7%)
  Mottled pigmentation: failure, % of subjects: (23.3%)
  Mottled pigmentation: improvement, % of subjects: (60%)
  Mottled pigmentation: sucess, % of subjects: (16.7%)
  Sallowness: failure, % of subjects: (16.7%)
  Sallowness: improvement, % of subjects: (30%)
  Sallowness: sucess, % of subjects: (53.3%)
  Tactile roughness: failure, % of subjects: (16.7%)
  Tactile roughness: improvement, % of subjects: (20%)
  Tactile roughness: sucess, % of subjects: (63.3%)
[2]; after session 1
  Pain VAS score, mean: 0.80
  Pain VAS score, median: (0)
[2]; after session 2
  Pain VAS score, mean: 0.60
  Pain VAS score, median: (0)
[2]; after session 3
  Pain VAS score, mean: 1.13
  Pain VAS score, median: (0)
[2]; [7]
  Desquamation score 0, % of subjects: (53.3%)
  Desquamation score 1, % of subjects: (30%)
  Desquamation score 2, % of subjects: (16.7%)
  Desquamation score 3, % of subjects: (0%)
  Erythema score 0, % of subjects: (66.7%)
  Erythema score 1, % of subjects: (26.7%)
  Erythema score 2, % of subjects: (6.7%)
  Erythema score 3, % of subjects: (0%)
  Oedema score 0, % of subjects: (100%)
  Oedema score 1, % of subjects: (0%)
  Oedema score 2, % of subjects: (0%)
  Oedema score 3, % of subjects: (0%)
  Oozing score 0, % of subjects: (100%)
  Oozing score 1, % of subjects: (0%)
  Oozing score 2, % of subjects: (0%)
  Oozing score 3, % of subjects: (0%)
  Pigmentation score 0, % of subjects: (96.7) %
  Pigmentation score 1, % of subjects: (3.3%)
  Pigmentation score 2, % of subjects: (0%)
  Pigmentation score 3, % of subjects: (0%)
  Vesiculation score 0, % of subjects: (100%)
  Vesiculation score 1, % of subjects: (0%)
  Vesiculation score 2, % of subjects: (0%)
  Vesiculation score 3, % of subjects: (0%)
[2]; [8]
  Desquamation score 0, % of subjects: (50%)
  Desquamation score 1, % of subjects: (40%)
  Desquamation score 2, % of subjects: (10%)
  Desquamation score 3, % of subjects: (0%)
  Erythema score 0, % of subjects: (63.3%)
  Erythema score 1, % of subjects: (36.7%)
  Erythema score 2, % of subjects: (0%)
  Erythema score 3, % of subjects: (0%)
  Oedema score 0, % of subjects: (100%)
  Oedema score 1, % of subjects: (0%)
  Oedema score 2, % of subjects: (0%)
  Oedema score 3, % of subjects: (0%)
  Oozing score 0, % of subjects: (100%)
  Oozing score 1, % of subjects: (0%)
  Oozing score 2, % of subjects: (0%)
  Oozing score 3, % of subjects: (0%)
  Pigmentation score 0, % of subjects: (96.7%)
  Pigmentation score 1, % of subjects: (3.3%)
  Pigmentation score 2, % of subjects: (0%)
  Pigmentation score 3, % of subjects: (0%)
  Vesiculation score 0, % of subjects: (100%)
  Vesiculation score 1, % of subjects: (0%)
  Vesiculation score 2, % of subjects: (0%)
  Vesiculation score 3, % of subjects: (0%)
[2]; [9]
  Desquamation score 0, % of subjects: (50%)
  Desquamation score 1, % of subjects: (40%)
  Desquamation score 2, % of subjects: (10%)
  Desquamation score 3, % of subjects: (0%)
  Erythema score 0, % of subjects: (76.7%)
  Erythema score 1, % of subjects: (23.3%)
  Erythema score 2, % of subjects: (0%)
  Erythema score 3, % of subjects: (0%)
  Oedema score 0, % of subjects: (100%)
  Oedema score 1, % of subjects: (0%)
  Oedema score 2, % of subjects: (0%)
  Oedema score 3, % of subjects: (0%)
  Oozing score 0, % of subjects: (100%)
  Oozing score 1, % of subjects: (0%)
  Oozing score 2, % of subjects: (0%)
  Oozing score 3, % of subjects: (0%)
  Pigmentation score 0, % of subjects: (86.7%)
  Pigmentation score 1, % of subjects: (13.3%)
  Pigmentation score 2, % of subjects: (10%)
  Pigmentation score 3, % of subjects: (0%)
  Vesiculation score 0, % of subjects: (100%)
  Vesiculation score 1, % of subjects: (0%)
  Vesiculation score 2, % of subjects: (0%)
  Vesiculation score 3, % of subjects: (0%)
[3]
  pulse exposure time at which PPIX concentration speeds up: 20 to 40 min
[4]
  Pain level: not changed
  inflammation (erythema): clearly diminishes
